Results on 32 compounds are retold here after the Deep4Chem optical property database.

A short description of the series: solvent given as SMILES.

SMILES strings stand for the structures.

`CN(C)c1ccc(-c2c(/C=C3/C=Cc4ccccc4N3C)c(=O)c2=O)cc1` yielded an emission maximum (in C1CCCCC1) of 427 nm, an emission maximum (in Cc1ccccc1) of 435 nm and an emission maximum (in ClCCl) of 588 nm. For the compound `CCCCCCCCN1c2ccc(C#Cc3ccc(OC)cc3)cc2Sc2cc(C=O)ccc21`, the emission maximum is 512 nm (in C1CCOC1); 538 nm (in CC#N); 494 nm (in CCCCCC); 464 nm (in CO); 524 nm (in CS(C)=O); 510 nm (in Cc1ccccc1). The compound further had an emission maximum (in ClC(Cl)Cl) of 524 nm. Turning to `COc1ccc(-n2nc(C(=O)c3ccc(Cl)cc3)c(N3CCCC3)n2)cc1`, where the note is “in CC#N”, the emission maximum came to 421 nm. With `N#Cc1ccc(C2=Cc3ccccc3P2(=O)c2ccccc2)cc1` (stereo unspecified), for the setting “in ClCCl”, the emission maximum is recorded as 426 nm.

Turning to `COc1ccc(-c2ccc3c(c2)c2cc(-c4ccc(OC)cc4)ccc2n3-c2ccc(C(=O)c3ccc4sc5ccccc5c4c3)cn2)cc1`, the emission maximum by setting is: (in Cc1ccccc1) 479.23 nm; (in c1cc(-n2c3ccccc3c3ccccc32)cc(-n2c3ccccc3c3ccccc32)c1) 484 nm. As for `C(/C=C/Nc1ccccc1)=[NH+]c1ccccc1`, the emission maximum (in CS(C)=O) was determined as 492 nm. `COC(=O)/C(C#N)=c1\s/c(=c2/s/c(=C(/C#N)C(=O)OC)c3cc(-c4ccc(C(F)(F)F)cc4)sc23)c2sc(-c3ccc(C(F)(F)F)cc3)cc12` showed an emission maximum (in Cc1ccccc1) of 625 nm. Same read-out and setting: the value for `c1ccc(-c2nc(-c3ccccc3)nc(-c3cc(-n4c5ccccc5c5ncccc54)c(-n4c5ccccc5c5ncccc54)c(-n4c5ccccc5c5ncccc54)c3)n2)cc1` was 435.76 nm. The compound `CC1=c2c3c4cccc5cccc(c=3c(C)[n+]2[B-](F)(F)n2c(C)c3cc6c(-c7ccccc7)c7c(c(-c8ccccc8)c6cc3c21)-c1cccc2cccc-7c12)c54` gave an emission maximum (in ClCCl) of 695 nm. In turn, `CSc1ccc(C#Cc2ccc(C#Cc3ccc(C#Cc4ccccc4C#N)cc3C#N)cc2C#N)cc1` registered an emission maximum (in ClC(Cl)Cl) of 455 nm. `CCCCCCCCc1ccc(-n2c3c4ccccc4nc(-c4ccc(C#N)cc4)c3c3c2c2c(-c4ccc(C#N)cc4)nc4ccccc4c2n3-c2ccc(CCCCCCCC)cc2)cc1`: the emission maximum (in ClC(Cl)Cl) is 510 nm. `COc1ccc(N(c2ccc(OC)cc2)c2ccc(-c3ccc(-c4ccc5nc6ccccc6c(=O)n5c4)cc3)cc2)cc1` came in with an emission maximum (in ClCCl) of 557 nm.

In turn, `CC1=C(/C=C/c2ccccc2)C(C)=[N+]2C1=C(c1ccccc1)c1c(C)c(/C=C/c3ccccc3)c(C)n1[B-]2(F)F` came in with an emission maximum (in ClC(Cl)Cl) of 633 nm. On to `CCc1ccc(-c2nc(-c3ccc(-n4c5ccccc5c5ccccc54)cc3)cc(-c3ccc(-n4c5ccccc5c5ccccc54)cc3)n2)cc1`, for which the emission maximum runs as follows: (in C1CCOC1) 436 nm; (in CN(C)C=O) 482 nm; (in Cc1ccccc1) 402 nm; (in ClC(Cl)Cl) 435 nm.

The compound `Fc1ccc(N(c2ccccc2)c2ccc3ccc4c(N(c5ccccc5)c5ccc(F)cc5)ccc5ccc2c3c54)cc1` returned an emission maximum (in ClCCl) of 470 nm. Compound `CCOC(=O)c1c(C=Cc2ccccc2)oc(NC2CCCCC2)c1C(=O)OCC` came in with an emission maximum (in CC#N) of 460 nm. For the compound `CN(C)c1ccc(-c2nc3c(c4c2-c2ccc(C#N)cc2CC4)-c2ccc(C#N)cc2CC3)cc1`, the emission maximum (in C1CCOC1) is recorded as 500 nm; the emission maximum (in CC#N) is given as 505 nm; the emission maximum (in CCCCCC) is 444 nm; the emission maximum (in CCOC(C)=O) was found to be 489 nm; the emission maximum (in CO) amounted to 489 nm; the emission maximum (in CS(C)=O) is recorded as 516 nm. Moreover, the emission maximum by setting is: (in Cc1ccccc1) 469 nm; (in ClCCl) 482 nm. For the compound `CC[n+]1c(C=C2C(=O)C(C=C3N(C)c4ccccc4C3(C)C)=C2[O-])[se]c2ccccc21`, the emission maximum came to 661 nm (in CO) and 675 nm (in ClC(Cl)Cl).

For `CCn1c(-c2ccc(-c3ccc4c(c3)C3(c5ccccc5-c5ccccc53)c3ccccc3-4)cc2)c(-c2ccc3ccccc3c2)c(-c2ccc3ccccc3c2)c1-c1ccc(-c2ccc3c(c2)C2(c4ccccc4-c4ccccc42)c2ccccc2-3)cc1`, for the setting “in CCOC(C)=O”, the emission maximum was determined as 441 nm.

For the compound `N#Cc1ccc(-c2ccc3c(c2)c2cc(-c4ccc(C#N)cc4)ccc2c2c3nc(-c3ccc(-c4ccc(N(c5ccccc5)c5ccccc5)cc4)cc3)n2-c2ccccc2)cc1`, the emission maximum by setting is: (in C1CCOC1) 468.68 nm; (in CC#N) 519.93 nm; (in CCCCCC) 421.18 nm; (in CCOCC) 449.2 nm.

Regarding `c1ccc(-c2nc(-c3ccccc3)nc(-c3ccc(-n4c5ccccc5c5ccc6c7ccccc7n(-c7ccccc7)c6c54)cc3)n2)cc1`, the emission maximum is, setting by setting: (in Cc1ccccc1) 459 nm; (in O=P(c1ccccc1)(c1ccccc1)c1ccc2oc3ccc(P(=O)(c4ccccc4)c4ccccc4)cc3c2c1) 477 nm. In the case of `c1ccc2cc(-c3cc(-c4nccs4)nc(-c4nccs4)c3)ccc2c1`, the emission maximum (in CC#N) turned out to be 385 nm, the emission maximum (in CCCCCC) is reported as 361 nm, the emission maximum (in CO) is given as 392 nm and the emission maximum (in ClC(Cl)Cl) turned out to be 372 nm. Take `C(=C1c2ccccc2CCc2ccccc21)c1ccc(C=C2c3ccccc3CCc3ccccc32)cc1`: where the note is “in C1CCOC1”, the emission maximum came out at 406 nm. For `c1ccc2c(c1)-c1ccccc1C21c2ccccc2-c2ccncc21`, the emission maximum (in CC1CCCO1) is 348 nm. As to `COc1ccc(-c2c3cc4ccccc4cc3c(C#Cc3ccccc3)c3cc4ccccc4cc23)cc1`, where the note is “in ClCCl”, the emission maximum was determined as 697 nm. The same measure, in the same setting: the value for `F[B-]1(F)n2c(Oc3ccccc3)c(Cl)c3c2C(=C2C(Br)=C(Cl)C(Oc4ccccc4)=[N+]21)Oc1ccccc1-3` was 492 nm. `CCCCCCn1c2ccccc2c2cc3c4cc5c6ccccc6n(CCCCCC)c5cc4c4cc5c(C)cc(=O)oc5cc4c3cc21` registered an emission maximum (in ClC(Cl)Cl) of 415 nm. In turn, `CC(C)(C)c1cc(-c2ccc(-c3cc(C(C)(C)C)cc(C(C)(C)C)c3)cc2)cc(C(C)(C)C)c1` had an emission maximum (in C1COCCO1) of 349 nm.

Take `Cc1ccc(C2=Cc3c4ccccc4c4ccccc4[n+]3[B-](F)(F)O2)cc1`: where the note is “in ClC(Cl)Cl”, the emission maximum came out at 450 nm.

`CC1(C)C(/C=C2\C(=O)C(/C=C3\Nc4ccccc4C3(C)C)=C2[O-])=[NH+]c2ccccc21` displayed an emission maximum (in ClC(Cl)Cl) of 670 nm. Turning to `c1cc2ccc1CCCc1cc3c(cc1CCCc1ccc(c4nsnc14)CCC3)CCC2`, the emission maximum (in C1CCCCC1) was 496 nm, the emission maximum (in CC#N) worked out at 534 nm and the emission maximum (in ClC(Cl)Cl) stood at 531 nm. Turning to `Cc1ccc(-c2c3nc(c(-c4ccc(C)cc4)c4ccc([nH]4)c(-c4ccc(OC(=O)C(C)c5ccc(-c6ccccc6)c(F)c5)cc4)c4nc(c(-c5ccc(C)cc5)c5ccc2[nH]5)C=C4)C=C3)cc1` (stereo unspecified), the emission maximum (in ClCCl) was determined as 653 nm.
